Converted amounts (≈) assume the structure as drawn. “And” between values parts separate entries of the source, which are not always exact repeats. Identical values can stand only once. Each block holds one compound with its values, some of them ahead of it. The source made the active and inactive calls. The rule behind the calls is not given here.
Key:
[1] = target: T1, Peroxisome proliferator-activated receptor gamma (Homo sapiens, UniProt P37231)
T1 sequence (P37231 whole entry): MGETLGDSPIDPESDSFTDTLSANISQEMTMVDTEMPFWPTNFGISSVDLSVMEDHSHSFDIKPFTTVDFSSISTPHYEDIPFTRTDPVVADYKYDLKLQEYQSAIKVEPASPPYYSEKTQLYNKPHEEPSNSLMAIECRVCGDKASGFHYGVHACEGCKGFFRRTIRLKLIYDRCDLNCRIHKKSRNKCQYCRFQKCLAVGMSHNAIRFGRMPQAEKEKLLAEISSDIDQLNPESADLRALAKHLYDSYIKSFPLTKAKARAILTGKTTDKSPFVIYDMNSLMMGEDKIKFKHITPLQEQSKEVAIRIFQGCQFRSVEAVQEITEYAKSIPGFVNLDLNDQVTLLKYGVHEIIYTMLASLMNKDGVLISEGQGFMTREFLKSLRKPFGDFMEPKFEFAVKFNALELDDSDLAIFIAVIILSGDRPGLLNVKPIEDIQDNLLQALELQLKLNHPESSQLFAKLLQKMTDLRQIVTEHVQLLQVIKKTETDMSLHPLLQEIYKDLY
Description: Transactivation of PPARgamma in CV1 cells

[2] = target: T2, Peroxisome proliferator-activated receptor gamma (Homo sapiens) (UniProt P37231); experiment: Transactivation of PPARgamma at 10 uM in CV1 cells; assay type: functional, cell-based; details: CV-1
T2 sequence (whole entry): T1 sequence (P37231 whole entry)

HT-29 = experiment: Antiproliferative activity against human HT29 cell line; assay type: functional, cell-based
Keratinocyte = experiment: Antiproliferative activity against human keratinocytes; assay type: functional, cell-based
T-cell [3] = experiment: Inhibition of PHA/PMA-induced IL2 production in human T lymphocytes; assay type: functional
MCF7 = experiment: Antiproliferative activity against human MCF7 cell line; assay type: functional, cell-based
[4] = target: T2, Peroxisome proliferator-activated receptor gamma (Homo sapiens); experiment: Transactivation of PPARgamma up to 30 uM in CV1 cells; assay type: functional, cell-based; details: CV-1
T-cell [5] = experiment: Inhibition of PHA/PMA-induced IL2 production in human T lymphocytes at 10 uM; assay type: functional, cell-based
3T3-L1 = experiment: Induction of adipogenesis in mouse 3T3 L1 preadipocytes; assay type: functional, cell-based
Rattus norvegicus [6] = experiment: Reduction in glucose level in Zucker fa/fa rat at 100 mg/kg relative to control; assay type: functional
[7] = Solubility in water; assay type: physicochemical
Rattus norvegicus [8] = experiment: Reduction in triglycerides level in Zucker fa/fa rat at 100 mg/kg relative to control; assay type: functional; set-up: scale not given: the % may be the effect or the level left

SMILES: CC(=O)SCCC(CCCCC(=O)N(C)CCOc1ccc(CC2SC(=O)NC2=O)cc1)SC(C)=O (stereo unspecified)
EC50 [1]: 0.039 µM
Activity [2]: 150

SMILES: CN(CCOc1ccc(CC2SC(=O)NC2=O)cc1)c1ccccn1 (stereo unspecified) [ROSIGLITAZONE]
IC50 (HT-29): 45 µM
IC50 (Keratinocyte): 8 µM
Inhibition (T-cell [3]): 75%
IC50 (MCF7): > 50 µM

SMILES: CC(=O)SC(CCCCC(=O)N(C)CCOc1ccc(CC2SC(=O)NC2=O)cc1)CCSC(=O)CN (stereo unspecified)
EC50 [1]: 0.195 µM
Activity [2]: 138

SMILES: CN(CCOc1ccc(CC2SC(=O)NC2=O)cc1)C(=O)CCCCC(S)CCS (stereo unspecified)
EC50 [1]: 0.075 µM
Activity (T-cell [5]): Active
Inhibition (T-cell [3]): 80%
Activity [2]: 129

SMILES: COC(=O)Cc1ccc(OCCCN(C)C(=O)CCCCC2CCSS2)c(Cl)c1 (stereo unspecified)
EC50 [1]: 18.5 µM

SMILES: COC(=O)Cc1ccc(OCCN(C)C(=O)CCCCC2CCSS2)c(Cl)c1 (stereo unspecified)
Activity [4]: inactive

SMILES: CN(CCOc1ccc(CC2SC(=O)NC2=O)cc1)C(=O)CCCCC(CCSC(=O)CN)SC(=O)CN.Cl.Cl (stereo unspecified)
EC50 [1]: 0.06 µM
IC50 (HT-29): 8 µM
Activity (T-cell [5]): Active
IC50 (Keratinocyte): 1 µM
Activity (3T3-L1): Active
Inhibition (T-cell [3]): 92%
IC50 (MCF7): 25 µM
Activity [2]: 71

SMILES: CN(CCOc1ccc(CC2SC(=O)NC2=O)cc1)C(=O)CCCCC(S)CCSC(=O)CCC(=O)O (stereo unspecified)
EC50 [1]: 0.02 µM
Activity [2]: 177

SMILES: CN(CCOc1ccc(CC2SC(=O)NC2=O)cc1)C(=O)CCCCC1CCSS1 (stereo unspecified)
Activity (Rattus norvegicus [6]): 180 mg/dL
EC50 [1]: 0.015 µM
IC50 (HT-29): 10 µM
Activity (T-cell [5]): Active
solubility [7]: 39 µg/mL (≈ 83.2 µM)
IC50 (Keratinocyte): 0.6 µM
Activity (3T3-L1): Active
Inhibition (T-cell [3]): 92%
IC50 (MCF7): 15 µM
Activity (Rattus norvegicus [8]): 83% and 54 mg/dl

SMILES: CN(CCOc1ccc(CC2SC(=O)NC2=O)cc1)C(=O)CCCCC(CCSC(=O)CCC(=O)O)SC(=O)CCC(=O)O (stereo unspecified)
EC50 [1]: 0.08 µM
Activity [2]: 60

SMILES: CC(=O)SC(CCCCC(=O)N(C)CCOc1ccc(CC2SC(=O)NC2=O)cc1)CCSC(=O)CCC(=O)O (stereo unspecified)
EC50 [1]: 0.15 µM
Activity [2]: 168

Results, then the compound that gave them:

EC50 [1]: 11.1 µM
SMILES: CN(CCCCC1CCSS1)CCOc1ccc(CC2SC(=O)NC2=O)cc1 (stereo unspecified) [listing 1 of 3 here]

EC50 [1]: 28 µM
SMILES: CN(CCCCC1CCSS1)CCOc1ccc(CC2SC(=O)NC2=O)cc1 (stereo unspecified) [listing 2 of 3 here]

Activity [4]: inactive
SMILES: CN(CCOc1ccc(CC(=O)O)cc1Cl)C(=O)CCCCC1CCSS1 (stereo unspecified)

EC50 [1]: 11.1 µM
SMILES: CN(CCCCC1CCSS1)CCOc1ccc(CC2SC(=O)NC2=O)cc1 (stereo unspecified) [listing 3 of 3 here]

Activity [4]: inactive
SMILES: CN(CCOc1ccc(CC2SC(=O)NC2=O)cc1)C(=O)CCC1CCSS1 (stereo unspecified)

EC50 [1]: 10 µM
SMILES: O=C(CCCCC1CCSS1)NCCOc1ccc(CC2SC(=O)NC2=O)cc1 (stereo unspecified)

EC50 [1]: 12.3 µM
SMILES: CN(CCCOc1ccc(CC(=O)O)cc1Cl)C(=O)CCCCC1CCSS1 (stereo unspecified)

Activity [4]: inactive
SMILES: CN(C(=O)CCCCC1CCSS1)c1ccc(CC2SC(=O)NC2=O)cc1 (stereo unspecified)
